Source: patent US20250154219A1, “PEPTIDE ANALOGS” (Adepthera LLC, priority 2017, published 2025)

What was measured:
[1] = biological target: somatostatin receptor SSTR2 (Homo sapiens, UniProt P30874); settings: arrestin assay
Description: (§1) The agonistic activities toward SSTR2, NTSR1, and AGTRL1 were assayed with an SSTR2 arrestin assay, an NTSR1 calcium flux assay, and an AGTRL1 CAMP assay (Discoverx Inc.), respectively.
(§2) For the Arrestin assays, PathHunter cell lines (Discoverx Inc.) were expanded from freezer stocks, and seeded in a total volume of 20 μL into white walled, 384-well microplates and incubated at 37 C for the appropriate time prior to testing. For agonist determination, cells were incubated with sample to induce response. […] The microplates were read following signal generation with a PerkinElmer Envision™ instrument for chemiluminescent signal detection.
(§3) The compound activity was analyzed using a CBIS data analysis suite (ChemInnovation, CA). For agonist mode assays, percentage activity was calculated using the following formula:
(§4) % Activity=100%×(mean RLU of test sample−mean RLU of vehicle control)/(mean MAX control ligand−mean RLU of vehicle control).

apelin receptor AGTRL1 = biological target: T1, apelin receptor AGTRL1 (Homo sapiens, UniProt P35414); assay: AGTRL1 cAMP assay; format: cell-based
T1 sequence (P35414 1-380): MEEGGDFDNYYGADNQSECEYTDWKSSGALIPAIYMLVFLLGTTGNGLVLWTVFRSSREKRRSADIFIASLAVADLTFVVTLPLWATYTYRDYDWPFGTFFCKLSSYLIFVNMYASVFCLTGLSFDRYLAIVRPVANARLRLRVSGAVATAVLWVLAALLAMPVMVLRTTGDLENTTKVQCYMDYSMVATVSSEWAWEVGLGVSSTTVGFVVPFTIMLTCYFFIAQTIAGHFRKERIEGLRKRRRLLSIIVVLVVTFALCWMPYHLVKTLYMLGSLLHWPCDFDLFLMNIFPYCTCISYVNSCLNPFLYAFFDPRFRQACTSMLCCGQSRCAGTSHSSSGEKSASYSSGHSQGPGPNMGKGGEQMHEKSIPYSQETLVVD
Description: as §1
(§5) For the analysis of Gs-coupled CAMP production, cAMP Hunter cell lines were expanded from freezer stocks, and cells were seeded in a total volume of 20 μL into white walled, 384-well microplates and incubated at 37 C for the appropriate time prior to testing. The CAMP modulation was determined using the DiscoverX HitHunter CAMP XS+ assay. For agonistic activity determination, cells were incubated with sample to induce response. Media was aspirated from cells and replaced with 15 μL 2:1 HBSS/10 mM Hepes: CAMP XS+Ab reagent. […] For Gs-coupled agonistic assays, percentage activity is calculated using the following formula: % Activity=100%×(mean RLU of test sample−mean RLU of vehicle control)/(mean RLU of MAX control−mean RLU of vehicle control).

CLR/RAMP1 receptor [2] = biological target: T2, CLR/RAMP1 receptor (Homo sapiens, UniProt O60894+Q16602); assay: CLR/RAMP1 cAMP receptor-activation assay (agonist mode); format: cell-based; settings: for CLR/RAMP1 Max Activity % of positive control: agonist mode, positive control β-CGRP;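 as to all read-outs here: Dose–response over 10 threefold dilutions from 1.0 µM, run in duplicate, luminescent cAMP detection (RLU), activity scaled between vehicle control (0%) and maximal control (100%)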
Description: (§6) Using a receptor activation assay, the dose-dependent stimulatory response of peptide agonists on a CLR/RAMP1 receptor, a CLR/RAMP2, or a CLR/RAMP3 receptor complex was determined. A cell line carrying the recombinant CLR/RAMP1, CLR/RAMP2, or a CLR/RAMP3 receptor was employed in the assay. Peptide agonist activities were tested, in duplicate, at 10 different concentrations, starting with 1.0 μM and serially diluted 3-fold, in DMSO. […] The CLR/RAMP1 CAMP, CLR/RAMP2 arrestin, and CLR/RAMP3 CAMP assays (DiscoveRx, Fremont, Calif.) were used.
(§7) The pharmacology of superagonistic activity of synthetic analogs was studied in cells that stably express CLR/RAMP1 (1321N1 cells), CLR/RAMP2 (CHO-K1 cells), or CLR/RAMP3 (CHO-K1 cells) receptors.
as §5

CLR/RAMP2 receptor [3] = biological target: T3, CLR/RAMP2 receptor (Homo sapiens, UniProt O60895+Q16602); assay: CLR/RAMP2 arrestin receptor-activation assay (agonist mode); format: cell-based; settings: for CLR/RAMP2 Max Activity % of positive control: agonist mode, positive control ADM;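 as to all read-outs here: agonist dose-response in recombinant cell lines stably expressing each receptor complex, duplicate wells over 10 threefold dilutions from a top concentration of 1.0 µM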
Description: as §6, §7, §2, §3, §4

[4] = biological target: T4, bradykinin receptor 1 (BDKRB1) (Homo sapiens, UniProt P46663); assay: BDKRB1 calcium flux assay, antagonist mode; format: cell-based; settings: IC50 column pair
T4 sequence (P46663 1-353): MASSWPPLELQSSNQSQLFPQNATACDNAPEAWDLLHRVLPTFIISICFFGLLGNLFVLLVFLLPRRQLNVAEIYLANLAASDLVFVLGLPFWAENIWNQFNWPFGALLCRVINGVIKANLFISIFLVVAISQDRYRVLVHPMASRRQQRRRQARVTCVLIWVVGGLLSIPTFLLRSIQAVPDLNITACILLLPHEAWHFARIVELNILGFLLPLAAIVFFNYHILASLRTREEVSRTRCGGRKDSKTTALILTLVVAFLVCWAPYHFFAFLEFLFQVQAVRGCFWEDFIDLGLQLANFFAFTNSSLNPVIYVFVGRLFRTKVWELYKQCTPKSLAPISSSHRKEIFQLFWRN
Description: (§8) The antagonistic activities toward BDKRB1 and AGTR1 were assayed with a BDKRB1 calcium flux assay and an AGTR1 calcium flux assay (Discoverx Inc.), respectively.
(§9) For antagonist determination, cells were pre-incubated with sample followed by agonist challenge at the EC80 concentration. Intermediate dilution of sample stocks was performed to generate 3× sample in assay buffer. After dye loading, cells were removed from the incubator and 10 μL 3× sample was added. Cells were incubated for 30 minutes at room temperature in the dark to equilibrate plate temperature. […] Compound antagonistic activity was measured on a FLIPR Tetra (MDS), and calcium mobilization was monitored for 2 minutes and 10 μL EC80 agonist in HBSS/20 mM Hepes was added to the cells 5 seconds into the assay.
(§10) For antagonist assays, percentage inhibition is calculated using the following formula: % Inhibition=100%×(1−(mean RFU of test sample−mean RFU of vehicle control)/(mean RFU of EC80 control−mean RFU of vehicle control)).

[5] = biological target: neurotensin receptor 1 (NTSR1) (Homo sapiens, UniProt P30989); assay: NTSR1 calcium flux assay; format: cell-based
Description: The agonistic activities toward SSTR2, NTSR1, and AGTRL1 were assayed with an SSTR2 arrestin assay, an NTSR1 calcium flux assay, and an AGTRL1 CAMP assay (Discoverx Inc.), respectively. The antagonistic activities toward BDKRB1 and AGTR1 were assayed with a BDKRB1 calcium flux assay and an AGTR1 calcium flux assay (Discoverx Inc.), respectively.
For the analysis of calcium flux, cell lines were expanded from freezer stocks and seeded in a total volume of 20 μL into black-walled, clear-bottom, Poly-D-lysine coated 384-well microplates and incubated at 37 C for the appropriate time prior to testing. […] Compound agonist activity was measured on a FLIPR Tetra (MDS), and calcium mobilization was monitored for 2 minutes and 10 μL 4× sample in HBSS/20 mM Hepes was added to the cells 5 seconds into the assay.
The compound activity was analyzed using a CBIS data analysis suite (ChemInnovation, CA), and percentage activity is calculated using the following formula: % Activity=100%×(mean RFU of test sample−mean RFU of vehicle control)/(mean MAX RFU control ligand−mean RFU of vehicle control). For antagonist assays, percentage inhibition is calculated using the following formula: % Inhibition=100%×(1−(mean RFU of test sample−mean RFU of vehicle control)/(mean RFU of EC80 control−mean RFU of vehicle control)).

CLR/RAMP1 receptor [6] = biological target: T2, CLR/RAMP1 receptor; assay: CLR/RAMP1 cAMP assay, antagonist mode (CGRP-stimulated); format: cell-based; settings: antagonist mode
Description: (§11) A cell line carrying the recombinant CLR/RAMP1, CLR/RAMP2, or a CLR/RAMP3 receptor was employed in the assay. […] The CLR/RAMP1 CAMP, CLR/RAMP2 arrestin, and CLR/RAMP3 CAMP assays (DiscoveRx, Fremont, Calif.) were used.
(§12) For the analysis of antagonistic activity, synthetic analogs were pre-incubated with the cells before adding the reference ligand at its EC80. […] For the determination of antagonistic activity, cells were pre-incubated with sample followed by agonist challenge at the EC80 concentration. […] After appropriate compound incubation, assay signal was generated through incubation with 20 μL cAMP XS+ED/CL lysis cocktail for one hour followed by incubation with 20 μL cAMP XS+EA reagent for three hours at room temperature. Microplates were read following signal generation with a PerkinElmer Envision™ instrument for chemiluminescent signal detection.
(§13) For the antagonistic activity assay, percentage inhibition is calculated using the following formula: % Inhibition=100%×(1−(mean RLU of test sample−mean RLU of vehicle control)/(mean RLU of EC80 control−mean RLU of vehicle control)).

CLR/RAMP2 receptor [7] = biological target: T3, CLR/RAMP2 receptor; assay: CLR/RAMP2 arrestin assay, antagonist mode (ADM-stimulated); format: cell-based
Description: A cell line carrying the recombinant CLR/RAMP1, CLR/RAMP2, or a CLR/RAMP3 receptor was employed in the assay. Peptide agonist activities were tested, in duplicate, at 10 different concentrations, starting with 1.0 μM and serially diluted 3-fold, in DMSO. […] The CLR/RAMP1 CAMP, CLR/RAMP2 arrestin, and CLR/RAMP3 CAMP assays (DiscoveRx, Fremont, Calif.) were used.
For the analysis of antagonistic activity, synthetic analogs were pre-incubated with the cells before adding the reference ligand at its EC80. […] For antagonistic activity determination, cells were pre-incubated with antagonist followed by agonist challenge at the EC80 concentration. […] Then, 5 μL of 6× EC80 agonist in assay buffer was added to the cells and incubated at 37 C or room temperature for 90 or 180 minutes.
The microplates were read following signal generation with a PerkinElmer Envision™ instrument for chemiluminescent signal detection.
% Activity=100%×(mean RLU of test sample−mean RLU of vehicle control)/(mean MAX control ligand−mean RLU of vehicle control). For antagonistic activity assays, percentage inhibition was calculated using the following formula: % Inhibition=100%×(1−(mean RLU of test sample−mean RLU of vehicle control)/(mean RLU of EC80 control−mean RLU of vehicle control)).

CLR/RAMP3 receptor [8] = biological target: T5, CLR/RAMP3 receptor (Homo sapiens, UniProt O60896+Q16602); assay: CLR/RAMP3 cAMP assay, antagonist mode; format: cell-based
Description: as §11, §12, §13

[9] = biological target: T6, type 1 angiotensin II receptor AGTR1 (Homo sapiens, UniProt P30556); assay: AGTR1 calcium flux assay, antagonist mode; format: cell-based
T6 sequence (P30556 1-359): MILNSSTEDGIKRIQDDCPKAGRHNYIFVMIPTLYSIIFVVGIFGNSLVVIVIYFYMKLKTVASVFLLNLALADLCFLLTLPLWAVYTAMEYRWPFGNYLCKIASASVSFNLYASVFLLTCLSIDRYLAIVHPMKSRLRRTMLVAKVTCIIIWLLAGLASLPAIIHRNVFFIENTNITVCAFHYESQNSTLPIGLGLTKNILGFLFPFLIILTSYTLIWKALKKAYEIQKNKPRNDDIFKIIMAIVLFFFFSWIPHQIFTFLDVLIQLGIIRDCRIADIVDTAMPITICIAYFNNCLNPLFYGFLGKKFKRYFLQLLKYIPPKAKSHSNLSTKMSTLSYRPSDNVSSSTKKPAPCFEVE
Description: as §8, §9, §10

CLR/RAMP3 receptor [10] = biological target: T5, CLR/RAMP3 receptor; assay: CLR/RAMP3 cAMP receptor-activation assay (agonist mode); format: cell-based; settings: for CLR/RAMP3 Max Activity % of positive control: agonist mode
Description: as §6, §7, §5

T3 sequence (Q16602 23-461): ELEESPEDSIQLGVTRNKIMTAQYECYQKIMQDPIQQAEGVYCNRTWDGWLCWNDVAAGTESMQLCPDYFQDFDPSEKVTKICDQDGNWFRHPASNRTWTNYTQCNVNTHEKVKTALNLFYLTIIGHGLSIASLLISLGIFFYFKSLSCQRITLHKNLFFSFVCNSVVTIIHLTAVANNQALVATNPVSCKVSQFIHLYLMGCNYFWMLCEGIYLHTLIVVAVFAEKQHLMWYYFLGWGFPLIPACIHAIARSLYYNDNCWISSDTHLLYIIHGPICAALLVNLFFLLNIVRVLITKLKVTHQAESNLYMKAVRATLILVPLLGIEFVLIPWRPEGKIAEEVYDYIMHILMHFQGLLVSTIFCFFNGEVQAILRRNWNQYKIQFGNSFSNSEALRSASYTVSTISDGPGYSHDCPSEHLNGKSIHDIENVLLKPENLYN
T3 sequence (O60895 43-175): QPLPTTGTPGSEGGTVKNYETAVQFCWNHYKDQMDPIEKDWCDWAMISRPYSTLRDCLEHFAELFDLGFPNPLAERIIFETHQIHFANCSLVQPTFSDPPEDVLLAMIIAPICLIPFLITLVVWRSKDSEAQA
T2 sequence (Q16602 23-461): as the sequence (Q16602 23-461) above
T2 sequence (O60894 27-148): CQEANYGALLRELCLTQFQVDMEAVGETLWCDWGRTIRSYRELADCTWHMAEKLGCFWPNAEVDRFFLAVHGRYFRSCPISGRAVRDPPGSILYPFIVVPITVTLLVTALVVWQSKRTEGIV
T5 sequence (Q16602 23-461): as the sequence (Q16602 23-461) above
T5 sequence (O60896 24-148): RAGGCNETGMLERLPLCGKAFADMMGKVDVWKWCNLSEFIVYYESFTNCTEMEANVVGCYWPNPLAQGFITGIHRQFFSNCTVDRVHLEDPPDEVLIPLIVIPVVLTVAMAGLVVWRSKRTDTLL
Chain of neurotensin receptor 1 (NTSR1) (P30989 whole entry): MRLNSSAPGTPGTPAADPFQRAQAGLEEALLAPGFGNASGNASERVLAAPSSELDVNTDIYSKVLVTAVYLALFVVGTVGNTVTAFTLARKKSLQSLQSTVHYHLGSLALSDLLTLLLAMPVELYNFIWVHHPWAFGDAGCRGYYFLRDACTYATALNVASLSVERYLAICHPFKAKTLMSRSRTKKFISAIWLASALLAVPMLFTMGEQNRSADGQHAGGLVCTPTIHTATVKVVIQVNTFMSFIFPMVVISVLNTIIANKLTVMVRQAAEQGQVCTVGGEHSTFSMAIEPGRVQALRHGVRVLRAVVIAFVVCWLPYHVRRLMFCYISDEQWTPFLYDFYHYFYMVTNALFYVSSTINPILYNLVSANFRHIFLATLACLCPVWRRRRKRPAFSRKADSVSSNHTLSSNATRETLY
Chain of somatostatin receptor SSTR2 (P30874 whole entry): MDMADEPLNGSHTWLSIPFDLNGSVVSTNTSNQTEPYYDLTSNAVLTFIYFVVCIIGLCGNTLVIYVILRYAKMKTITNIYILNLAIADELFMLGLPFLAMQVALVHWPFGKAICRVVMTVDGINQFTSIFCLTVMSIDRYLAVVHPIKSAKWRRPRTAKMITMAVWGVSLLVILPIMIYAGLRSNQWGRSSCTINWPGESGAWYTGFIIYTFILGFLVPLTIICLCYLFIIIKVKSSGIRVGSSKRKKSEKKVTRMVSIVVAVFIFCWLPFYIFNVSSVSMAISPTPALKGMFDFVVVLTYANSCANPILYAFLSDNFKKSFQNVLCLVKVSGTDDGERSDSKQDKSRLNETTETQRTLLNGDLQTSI

In the case of `CSCC[C@H](NC(=O)[C@H](C)NC(=O)[C@@H]1CCCN1C(=O)[C@H](CC(N)=O)NC(=O)[C@H](CO)NC(=O)[C@H](CC(N)=O)NC(=O)[C@H](C)NC(=O)[C@@H](N)CO)C(=O)N[C@@H](C)C(=O)N1CCC[C@H]1C(=O)N[C@@H](CCCNC(=N)N)C(=O)N[C@@H](CCC(=O)O)C(=O)N[C@@H](CCCNC(=N)N)C(=O)N[C@@H](CCCCN)C(=O)N[C@@H](C)C(=O)NCC(=O)N[C@H]1CSSC[C@@H](C(=O)O)NC(=O)[C@H](CO)NC(=O)[C@H]([C@@H](C)O)NC(=O)[C@H](Cc2ccccc2)NC(=O)[C@H]([C@@H](C)O)NC(=O)[C@H](CCCCN)NC(=O)[C@H](Cc2c[nH]c3ccccc23)NC(=O)[C@H](Cc2ccccc2)NC(=O)[C@H](Cc2ccccc2)NC(=O)[C@H](CC(N)=O)NC(=O)[C@H](CCCCN)NC1=O` [Somatostatin 28], the “SSTR2 Max Activity” value [1] is reported as 102 % of positive controls.

“(G1p)RPRLSHKGPMPF [Apelin 13, reference compound]” was tested, and the “AGTRL1 Max Activity” value (apelin receptor AGTRL1) was 100 % of positive controls.

“(Glp)RPRLSHKGP(Nle)PF-miniPEG-K(PAL)GCRFGTCTVQKLAHQIYQFTDKDVAPRSKISPQGY-NH2 [SEQ ID NO: 228]” was tested, and the “CLR/RAMP1 Max Activity % of positive control” value (CLR/RAMP1 receptor [2]) was 130 % of positive control, the “CLR/RAMP2 Max Activity % of positive control” value (CLR/RAMP2 receptor [3]) was 74 % of positive control and the “AGTRL1 Max Activity” value (apelin receptor AGTRL1) was 97 % of positive controls.

With “Ace-KRPPGFS-DβNal-I-miniPEG-K(PAL)GCRFGTCTVQKLAHQIYQFTDKDVAPRSKISPQGY-NH2 [SEQ ID NO: 231]” the “CLR/RAMP1 Max Activity % of positive control” value (CLR/RAMP1 receptor [2]) was 115 % of positive control, the “CLR/RAMP2 Max Activity % of positive control” value (CLR/RAMP2 receptor [3]) was 46 % of positive control and the “BDKRB1 Max Activity” value [4] was 109 % of positive controls.

“KKPYIL [[Lys 8,9] Neurotensin, reference compound]” was tested, and the “NTSR1 Max Activity” value [5] was 100 % of positive controls.

“Pal-KVQKLAHQSAPVDPSSPHSY-NH2 [SEQ ID NO: 124]” was tested, and the “CLR/RAMP1 Max Activity % of positive control (antagonist)” value (CLR/RAMP1 receptor [6]) was 95 % of positive control, the “CLR/RAMP2 Max Activity % of positive control (antagonist)” value (CLR/RAMP2 receptor [7]) was 103 % of positive control and the “CLR/RAMP3 Max Activity % of positive control (antagonist)” value (CLR/RAMP3 receptor [8]) was 102 % of positive control.

For “Pyr(glu)-LYENKPRRPYIL-miniPEG-K(Pal)VQKLSAPVDPSSPHSY-NH2 [SEQ ID NO: 224]”, the “CLR/RAMP1 Max Activity % of positive control (antagonist)” value (CLR/RAMP1 receptor [6]) was 99 % of positive control, the “CLR/RAMP2 Max Activity % of positive control (antagonist)” value (CLR/RAMP2 receptor [7]) was 100 % of positive control and the “NTSR1 Max Activity” value [5] was 57 % of positive controls.

With “Sar-RVYVHPA-miniPEG-K(PAL)GCRFGTCTVQKLAHQIYQFTDKDVAPRSKISPQGY-NH2 [SEQ ID NO: 234]” the “CLR/RAMP1 Max Activity % of positive control” value (CLR/RAMP1 receptor [2]) was 132 % of positive control, the “CLR/RAMP2 Max Activity % of positive control” value (CLR/RAMP2 receptor [3]) was 86 % of positive control and the “AGTR1 Max Activity (IC50 column pair)” value [9] was 104 % of positive controls.

In the case of “miniPEG-K(PAL)GCRFGTCTVQKLAHQIYQFTDKDSAPVDPSSPHSY-NH2 [SEQ ID NO: 48]”, the EC50 (CLR/RAMP1 receptor [2]; 1321N1 cells stably expressing CLR/RAMP1, cAMP assay) is reported as 0.3 nM, the “CLR/RAMP1 Max Activity % of positive control” value (CLR/RAMP1 receptor [2]) is reported as 78 % of positive control and the EC50 (CLR/RAMP2 receptor [3]; CHO-K1 cells stably expressing CLR/RAMP2, arrestin assay) is reported as 0.2 nM. The “CLR/RAMP2 Max Activity % of positive control” value (CLR/RAMP2 receptor [3]) was 77 % of positive control, the EC50 (CLR/RAMP3 receptor [10]; CHO-K1 cells stably expressing CLR/RAMP3, cAMP assay) was 0.07 nM and the “CLR/RAMP3 Max Activity % of positive control” value (CLR/RAMP3 receptor [10]) was 141 % of positive control.

With “miniPEG-K(PAL)GCRFGTCTVQKLAHQIYQFTDKDVAPRSKISPQGY-NH2 [SEQ ID NO: 101]” the “CLR/RAMP1 Max Activity % of positive control” value (CLR/RAMP1 receptor [2]) was 56 % of positive control, the “receptor selectivity of agonists, in words” value (CLR/RAMP2 receptor [3]; CLR/RAMP2 versus CLR/RAMP1) was “CLR/RAMP2-selective” and the “CLR/RAMP2 Max Activity % of positive control” value (CLR/RAMP2 receptor [3]) was 74 % of positive control. For the same compound, the “CLR/RAMP3 Max Activity % of positive control” value (CLR/RAMP3 receptor [10]) was 129 % of positive control.
